In patent US20230150986A1, “ANTAGONISTS OF THE MUSCARINIC ACETYLCHOLINE RECEPTOR M4” (Vanderbilt University, priority 2019, published 2023):

Target: T1, Human M4 (Homo sapiens, UniProt P08173)
T1 construct: Human or rat M4 cDNA, along with the chimeric G protein Gq,5, were transfected into Chinese hamster ovary (CHO-K1) cells; expressed in transfected cells; host or cells: CHO-K1 (M4/Gqi5/CHO)
T1 sequence (P08173 1-479): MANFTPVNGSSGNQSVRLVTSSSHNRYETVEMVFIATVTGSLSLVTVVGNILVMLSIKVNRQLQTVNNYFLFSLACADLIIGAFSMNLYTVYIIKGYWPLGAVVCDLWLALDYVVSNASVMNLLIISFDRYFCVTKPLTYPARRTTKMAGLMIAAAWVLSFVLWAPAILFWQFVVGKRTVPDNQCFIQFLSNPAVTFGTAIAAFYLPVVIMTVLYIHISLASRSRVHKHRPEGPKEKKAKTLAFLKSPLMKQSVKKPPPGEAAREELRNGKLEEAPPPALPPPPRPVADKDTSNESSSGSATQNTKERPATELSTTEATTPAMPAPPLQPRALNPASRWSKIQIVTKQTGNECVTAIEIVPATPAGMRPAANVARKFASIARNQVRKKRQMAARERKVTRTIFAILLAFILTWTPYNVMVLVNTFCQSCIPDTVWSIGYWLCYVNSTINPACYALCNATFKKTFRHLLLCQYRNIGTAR
Test: mAChR M4 cell-based functional assay (calcium flux, decrease of EC80 acetylcholine response)
Conditions: for Human M4 Emin: % ACh maximum at 30 μM; for IC50: CHO-K1 cells with human M4 and Gqi5, EC80 acetylcholine
Protocol: Human or rat M4 cDNA, along with the chimeric G protein Gq,5, were transfected into Chinese hamster ovary (CHO-K1) cells purchased from the American Type Culture Collection using Lipofectamine2000. M4/Gqi5/CHO cells were grown in Ham's F-12 medium containing 10% heat-inactivated fetal bovine serum (FBS), 20 mM HEPES, 500 μg/mL G^418 sulfate, and 200 μg/mL Hygromycin B.
For high throughput measurement of agonist-evoked increases in intracellular calcium, CHO-K1 cells stably expressing muscarinic receptors were plated in growth medium lacking G418 and hygromycin at 15,000 cells/20 μL/well in Greiner 384-well black-walled, tissue culture (TC)-treated, clear-bottom plates (VWR). Cells were incubated overnight at 37° C. and 5% CO2. The next day, cells were washed using an ELX 405 (BioTek) with assay buffer; the final volume was then aspirated to 20 μL. Next, 20 μL of a 2.3 μM stock of Fluo-4/acetoxymethyl ester (Invitrogen, Carlsbad, Calif.), prepared as a 2.3 mM stock in DMSO and mixed in a 1:1 ratio with 10% (w/v) Pluronic F-127 and diluted in assay buffer, was added to the wells and the cell plates were incubated for 50 min at 37° C. and 5% CO2. Dye was removed by washing with the ELX 405 and the final volume was aspirated to 20 μL. Compound master plates were formatted in a 10 point concentration-response curve (CRC) format (1:3 dilutions) in 100% DMSO with a starting concentration of 10 or 1 mM using a BRAVO liquid handler (Agilent). Test compound CRCs were then transferred to daughter plates (240 nL) using the Echo acoustic plate reformatter (Labcyte, Sunnyvale, Calif.) and then diluted into assay buffer (40 μL) to a 2× stock using a Thermo Fisher Combi (Thermo Fisher Scientific, Waltham, Mass.).
Calcium flux was measured using the Functional Drug Screening System (FDSS) 6000 or 7000 (Hamamatsu Corporation, Tokyo, Japan) as an increase in the fluorescent static ratio. Compounds were applied to cells (20 μL, 2×) using the automated system of the FDSS at 2 seconds into the protocol and the data were collected at 1 Hz. At 143 s, 10 μL of an EC20 concentration of the muscarinic receptor agonist acetylcholine was added (5×), followed by the addition of […] of an EC80 concentration of acetylcholine at the 268 s time point (5×). Agonist activity was analyzed as a concentration-dependent increase in calcium mobilization upon compound addition. Positive allosteric modulator activity was analyzed as a concentration-dependent increase in the EC2o acetylcholine response. Antagonist activity was analyzed as a concentration-dependent decrease in the EC80 acetylcholine response; for the purposes of the tables herein, an IC50 (inhibitory concentration 50) was calculated as a concentration-dependent decrease of the response elicited by an EC80 concentration of acetylcholine. Concentration-response curves were generated using a four-parameter logistical equation in XLFit curve fitting software (IDBS, Bridgewater, N.J.) for Excel (Microsoft, Redmond, Wash.) or Prism (GraphPad Software, Inc., San Diego, Calif.) or the Dotmatics software platform (Dotmatics, Bishop's Stortford, UK).
Compounds were synthesized as described above. Activity (IC50 and Emin) was determined in the mAChR M4 cell-based functional assay as described above and the data are shown in Table 2.

| Human M4 Emin | IC50 | SMILES |
| --- | --- | --- |
| 2% | 3.1 nM | Fc1cc(F)c(F)c(-c2ccc(N[C@@H]3C[C@H]4CN(CC5CCOCC5)C[C@H]4[C@@H]3F)nn2)c1 (racemic) [Compound 86, (3aR,4R,5S,6aS)-4-fluoro-2-((tetrahydro-2H-pyran-4-yl)methyl)-N-(6-(2,3,5-trifluorophenyl)pyridazin-3-yl)octahydrocyclopenta[c]pyrrol-5-amine and (3aS,4S,5R,6aR)-4-fluoro-2-((tetrahydro-2H-pyran-4-yl)methyl)-N-(6-(2,3,5-trifluorophenyl)pyridazin-3-yl)octahydrocyclopenta[c]pyrrol-5-amine] |
| 17% | 1.2 nM | C[C@]12C[C@H](Nc3ccc(-c4cc(F)cc(F)c4F)nn3)C[C@H]1CN(CC1CCOCC1)C2 (racemic) [Compound 88, (3aR,5S,6aS)-3a-methyl-2-((tetrahydro-2H-pyran-4-yl)methyl)-N-(6-(2,3,5-trifluorophenyl)pyridazin-3-yl)octahydrocyclopenta[c]pyrrol-5-amine and (3aS,5R,6aR)-3a-methyl-2-((tetrahydro-2H-pyran-4-yl)methyl)-N-(6-(2,3,5-trifluorophenyl)pyridazin-3-yl)octahydrocyclopenta[c]pyrrol-5-amine] |
| 3% | 13.7 nM | Fc1cc(F)c(F)c(-c2ccc(N[C@H]3C[C@@H]4CN(CC5CCCOC5)C[C@@H]4C3)nn2)c1 (single isomer, unassigned) [Compound 24] |
| 3% | 5.7 nM | Fc1cc(F)c(F)c(-c2ccc(N[C@H]3C[C@@H]4CN(CC5CCCOC5)C[C@@H]4C3)nn2)c1 (single isomer, unassigned) [Compound 25] |
| 3% | 1.24 nM | Fc1cc(F)c(F)c(-c2ccc(N[C@H]3C[C@@H]4CN(CC5CCCCO5)C[C@@H]4C3)nn2)c1 (single isomer, unassigned) [Compound 26] |
| 4% | 2.14 nM | Fc1cc(F)c(F)c(-c2ccc(N[C@H]3C[C@@H]4CN(CC5CCCCO5)C[C@@H]4C3)nn2)c1 (single isomer, unassigned) [Compound 27] |
| 3% | 57.5 nM | Fc1cc(F)c(F)c(-c2ccc(N[C@H]3C[C@@H]4CN(CC5CCCCC5)C[C@@H]4C3)nn2)c1 [Compound 3, (3aR,5s,6aS)-2-(cyclohexylmethyl)-N-(6-(2,3,5-trifluorophenyl)pyridazin-3-yl)octahydrocyclopenta[c]pyrrol-5-amine] |
| 4% | 3.09 nM | Fc1cc(F)c(F)c(-c2ccc(N[C@H]3C[C@@H]4CN(CCC5CCOCC5)C[C@@H]4C3)nn2)c1 [Compound 4, (3aR,5s,6aS)-2-(2-(tetrahydro-2H-pyran-4-yl)ethyl)-N-(6-(2,3,5-trifluorophenyl)pyridazin-3-yl)octahydrocyclopenta[c]pyrrol-5-amine] |
| 3% | 13.5 nM | Fc1cc(F)c(F)c(-c2ccc(N[C@H]3C[C@@H]4CN(C5CCC6(CCOCC6)CC5)C[C@@H]4C3)nn2)c1 [Compound 5, (3aR,5s,6aS)-2-(3-oxaspiro[5.5]undecan-9-yl)-N-(6-(2,3,5-trifluorophenyl)pyridazin-3-yl)octahydrocyclopenta[c]pyrrol-5-amine] |
| 3% | 20.9 nM | Fc1cc(F)c(F)c(-c2ccc(N[C@H]3C[C@@H]4CN(C5CCCCCC5)C[C@@H]4C3)nn2)c1 [Compound 6, (3aR,5s,6aS)-2-cycloheptyl-N-(6-(2,3,5-trifluorophenyl)pyridazin-3-yl)octahydrocyclopenta[c]pyrrol-5-amine] |
| 4% | 215 nM | CC1(C)CC(N2C[C@H]3C[C@H](Nc4ccc(-c5cc(F)cc(F)c5F)nn4)C[C@H]3C2)CC(C)(C)O1 [Compound 7, (3aR,5s,6aS)-2-(2,2,6,6-tetramethyltetrahydro-2H-pyran-4-yl)-N-(6-(2,3,5-trifluorophenyl)pyridazin-3-yl)octahydrocyclopenta[c]pyrrol-5-amine] |
| 3% | 6.09 nM | OC1(CN2C[C@H]3C[C@H](Nc4ccc(-c5cc(F)cc(F)c5F)nn4)C[C@H]3C2)CCCCC1 [Compound 9, 1-(((3aR,5s,6aS)-5-((6-(2,3,5-trifluorophenyl)pyridazin-3-yl)amino)hexahydrocyclopenta[c]pyrrol-2(1H)-yl)methyl)cyclohexan-1-ol] |
| 4% | 5.7 nM | CC(C1CCOCC1)N1C[C@H]2C[C@H](Nc3ccc(-c4cc(F)cc(F)c4F)nn3)C[C@H]2C1 (stereo partly drawn) [Compound 10, (3aR,5s,6aS)-2-(1-(tetrabydro-2H-pyran-4-yl)ethyl)-N-(6-(2,3,5-trifluorophenyl)pyridazin-3-yl)octahydrocyclopenta[c]pyrrol-5-amine] |
| 3% | 4.63 nM | CC1(CN2C[C@H]3C[C@H](Nc4ccc(-c5cc(F)cc(F)c5F)nn4)C[C@H]3C2)CCOCC1 [Compound 11, (3aR,5s,6aS)-2-((4-methyltetrahydro-2H-pyran-4-yl)methy)-N-(6-(2,3,5-trifluorophenyl)pyridazin-3-yl)octahydrocyclopenta[c]pyrrol-5-amine] |
| 3% | 8.64 nM | [2H]C(C)(C1CCOCC1)N1C[C@H]2C[C@H](Nc3ccc(-c4cc(F)cc(F)c4F)nn3)C[C@H]2C1 (stereo partly drawn) [Compound 12, (3aR,5s,6aS)-2-(1-(tetrahydro-2H-pyran-4-yl)ethyl-1-d)-N-(6-(2,3,5-trifluorophenyl)pyridazin-3-yl)octahydrocyclopenta[c]pyrrol-5-amine] |
| 3% | 74.6 nM | CC(c1ccccn1)N1C[C@H]2C[C@H](Nc3ccc(-c4cc(F)cc(F)c4F)nn3)C[C@H]2C1 (stereo partly drawn) [Compound 13, (3aR,5s,6aS)-2-(1-(pyridin-2-yl)ethyl)-N-(6-(2,3,5-trifluorophenyl)pyridazin-3-yl)octahydrocyclopenta[c]pyrrol-5-amine] |
| 2% | 6.13 nM | [2H]C([2H])(N1C[C@H]2C[C@H](Nc3ccc(-c4cc(F)cc(F)c4F)nn3)C[C@H]2C1)C1(C)CCOCC1 [Compound 14, (3aR,5s,6aS)-2-((4-methyltetrahydro-2H-pyran-4-yl)methyl-d2)-N-(6-(2,3,5-trifluorophenyl)pyridazin-3-yl)octahydrocyclopenta[c]pyrrol-5-amine] |
| 2% | 95.2 nM | [2H]C(C)(c1ccccn1)N1C[C@H]2C[C@H](Nc3ccc(-c4cc(F)cc(F)c4F)nn3)C[C@H]2C1 (stereo partly drawn) [Compound 15, (3aR,5s,6aS)-2-(1-(pyridin-2-yl)ethyl-1-d)-N-(6-(2,3,5-trifluorophenyl)pyridazin-3-yl)octahydrocyclopenta[c]pyrrol-5-amine] |
| 3% | 38 nM | Cc1cccc(CN2C[C@H]3C[C@H](Nc4ccc(-c5cc(F)cc(F)c5F)nn4)C[C@H]3C2)n1 [Compound 16, (3aR,5s,6aS)-2-((6-methylpyridin-2-yl)methyl)-N-(6-(2,3,5-trifluorophenyl)pyridazin-3-yl)octahydrocyclopenta[c]pyrrol-5-amine] |
